One data set deals with A9 murine cell line. As to the kind of experiment: In vitro proliferation assay (Alamar Blue). It counts as cell-based. As for the experimental part:
Cells lines were acquired from cell banks, see supplemental material, grown using the cell banks recommended culture conditions (Supplemental Table 3). In some experiments noted “low folate” the cells were washed and grown in folate free RPMI-1640 media (Gibco #27016-021) supplemented with 5 ml 1 M Hepes, 5 ml 100 mM Na pyruvate, 2.5 mg/ml glucose and 10% defined FBS (Hyclone #SH30070) per 500 mL media for 5–7 days to deplete intracellular folate levels prior to the start of the experiment. Where noted, cells were maintained in complete “high folate” RPMI-1640 media (ATCC #30-2001) with 10% defined FBS to contrast with the low folate conditions.
Cells were cultured using recommended culture conditions unless noted otherwise (Supplemental Table 3). Cells were plated, dosed with compound and incubated at 37 °C for approximately 2 doubling times as determined for each cell line. Cell Titer Glo (Promega) assay was used to measure proliferation according to manufacturer’s recommendations by measuring luminescence with Flexstation3 (Molecular Devices) with 500 ms integration time. […]
For a limited number of cell lines, compound dosing was performed under high or low folate conditions with cell viability being determined with Alamar Blue rather than an ATP dependent assay. […] The % inhibition for each sample was calculated and fit as described above.
For orientation: Resazurin is reduced to fluorescent resorufin, in cell work by metabolically active cells.

For the next data set, the system named is A9 cells. As to the kind of experiment: MS detection of ZMP and dUMP in cultured cells. It counts as cell-based, murine. As for the experimental part: To mimic human plasma levels, low folate media is traditionally used in which the folate comes only from the defined fetal bovine serum. […] Because LSN3213128 would be dosed in mice on normal diet, cell line screening was performed under standard tissue culture conditions to identify cell lines sensitive to treatment under high folate conditions. In order to compare tissue culture values with tumor levels, an average 4 pL cell volume[36] was used to calculate cellular ZMP concentrations. In MDA-MB-231[…] cells using regular RPMI, the peak intracellular ZMP levels are about 770 μM while in the salvage deficient A9 cells ZMP is 6,500 μM. […] It is not surprising that in vivo in mice on standard chow where folate plasma levels are >10-fold lower than tissue culture that tumor ZMP levels are also lower. […] ZMP was detected in cultured cells via mass spec analysis. Cells were plated in 96-well plates at 25,000 cells per well in 100 μL with either high or low folate RPMI media and incubated overnight at 37 °C with 5% CO2. Cells were treated with inhibitor compounds for 16 hours, 0.5% DMSO final concentration. Growth media was decanted and cells were lysed for 10 min at room temperature with 50 μL per well of 1x Sure Fire Lysis buffer (Perkin Elmer, SureFire kit component). […] Samples were sealed, vortexed for 5 minutes, and placed in the refrigerator for at least 30 minutes. The samples were centrifuged at 4 °C for 10 minutes at 16,600 g. 75 μL of the aqueous layer were transferred to a clean 96-well plate and seal prior to analysis. The LC-MS method utilizes a Shimadzu Prominence 20 A HPLC system connected to an AB Sciex 5500TM or an AB Sciex 6500TM triple quadrupole mass spectrometer. […] […] dUMP were detected using positive ion TurboIonSpray® multiple reaction monitoring mode and the data were processed with AB Sciex MultiQuantTM. Back-calculated ZMP concentrations were fit to a four-parameter logistic equation using ACTIVITYBASE 4.0 to determine EC50 values relative to the maximum observed metabolite levels.

The nature of a further data set: Pharmacokinetic studies. It counts as in vivo. Conditions: mouse. The method, then:
Blood samples were obtained through tail clip at 0, 0.08 (IV only), 0.25, 0.75, 2, 4, 8, and 24 hours where approximately 20 µL of blood was filled to capacity into EDTA-coated capillary tubes (Fisher Scientific,) and spotted on to Whatman® DMPK-C DBS collection (GE Healthcare Bio-Sciences). Once spotted, the cards were allowed to dry for 2 hours, placed in Ziploc® bags (S.C. Johnson & Son, Inc.) and shipped to the bioanalytical facility at ambient temperature. Punches (3 mm) from DBS cards were extracted with 180 µL of a 20 ng/mL analog IS (proprietary Lilly compound) in methanol/acetonitrile (1:1, v/v) solution in 96-well plates. Samples were quantitated using LC-MS analysis (AB Sciex® API 4000 triple-quadrupole mass spectrometer (Life Technologies Corporation). PK parameters were calculated for concentration time profiles using Watson LIMS version 7.4 (Thermo Scientific).

The target of a further data set is T1, KIT (Homo sapiens, UniProt P10721).
T1 construct: purchased CEREP Panlabs (Eurofins)
T1 sequence (P10721 26-976): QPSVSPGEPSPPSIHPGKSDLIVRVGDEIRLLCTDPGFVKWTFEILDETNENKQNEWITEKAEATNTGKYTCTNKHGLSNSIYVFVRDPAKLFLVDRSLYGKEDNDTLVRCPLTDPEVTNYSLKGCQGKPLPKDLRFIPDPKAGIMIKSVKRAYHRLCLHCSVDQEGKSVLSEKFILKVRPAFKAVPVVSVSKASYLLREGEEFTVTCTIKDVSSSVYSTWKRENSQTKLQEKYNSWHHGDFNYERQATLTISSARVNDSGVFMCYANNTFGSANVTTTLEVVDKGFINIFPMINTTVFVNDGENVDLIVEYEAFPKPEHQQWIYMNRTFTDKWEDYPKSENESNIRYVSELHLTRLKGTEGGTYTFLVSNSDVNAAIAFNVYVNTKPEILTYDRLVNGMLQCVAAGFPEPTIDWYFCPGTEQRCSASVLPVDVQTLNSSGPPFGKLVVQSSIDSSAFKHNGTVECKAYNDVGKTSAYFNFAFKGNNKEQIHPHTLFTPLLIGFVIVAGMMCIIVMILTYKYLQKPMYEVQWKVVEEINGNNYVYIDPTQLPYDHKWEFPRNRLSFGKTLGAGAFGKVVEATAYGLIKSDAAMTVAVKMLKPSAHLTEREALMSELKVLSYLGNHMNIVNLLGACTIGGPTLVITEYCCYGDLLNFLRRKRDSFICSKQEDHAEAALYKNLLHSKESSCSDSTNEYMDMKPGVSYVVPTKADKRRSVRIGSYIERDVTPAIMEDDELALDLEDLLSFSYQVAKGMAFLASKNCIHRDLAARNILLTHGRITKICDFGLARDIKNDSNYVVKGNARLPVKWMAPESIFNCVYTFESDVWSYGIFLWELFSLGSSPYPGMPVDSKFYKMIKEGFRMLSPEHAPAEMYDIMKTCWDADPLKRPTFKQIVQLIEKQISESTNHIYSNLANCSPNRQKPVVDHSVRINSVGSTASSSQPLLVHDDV
The experiment in a line: CEREP protein kinase assay. In kind it is biochemical.

For the next data set, the target named is T2, SGK1 (Homo sapiens, UniProt O00141).
T2 construct: purchased CEREP Panlabs (Eurofins)
T2 sequence (O00141 1-431): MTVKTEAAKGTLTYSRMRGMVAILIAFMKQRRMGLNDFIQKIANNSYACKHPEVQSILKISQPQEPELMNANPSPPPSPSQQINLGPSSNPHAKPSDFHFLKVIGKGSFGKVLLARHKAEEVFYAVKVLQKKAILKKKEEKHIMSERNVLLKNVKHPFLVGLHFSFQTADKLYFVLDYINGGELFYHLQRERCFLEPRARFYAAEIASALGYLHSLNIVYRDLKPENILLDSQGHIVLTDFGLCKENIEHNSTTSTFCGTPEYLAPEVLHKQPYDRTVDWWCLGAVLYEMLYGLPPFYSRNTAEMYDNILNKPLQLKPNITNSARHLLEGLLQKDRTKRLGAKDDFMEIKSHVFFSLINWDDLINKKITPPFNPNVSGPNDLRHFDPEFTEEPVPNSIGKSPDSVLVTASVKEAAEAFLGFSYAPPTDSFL
The experiment in a line: CEREP protein kinase assay. It counts as biochemical.

The target in another data set is T3, STK33 (Homo sapiens, UniProt Q9BYT3).
T3 construct: purchased CEREP Panlabs (Eurofins)
T3 sequence (Q9BYT3 whole entry): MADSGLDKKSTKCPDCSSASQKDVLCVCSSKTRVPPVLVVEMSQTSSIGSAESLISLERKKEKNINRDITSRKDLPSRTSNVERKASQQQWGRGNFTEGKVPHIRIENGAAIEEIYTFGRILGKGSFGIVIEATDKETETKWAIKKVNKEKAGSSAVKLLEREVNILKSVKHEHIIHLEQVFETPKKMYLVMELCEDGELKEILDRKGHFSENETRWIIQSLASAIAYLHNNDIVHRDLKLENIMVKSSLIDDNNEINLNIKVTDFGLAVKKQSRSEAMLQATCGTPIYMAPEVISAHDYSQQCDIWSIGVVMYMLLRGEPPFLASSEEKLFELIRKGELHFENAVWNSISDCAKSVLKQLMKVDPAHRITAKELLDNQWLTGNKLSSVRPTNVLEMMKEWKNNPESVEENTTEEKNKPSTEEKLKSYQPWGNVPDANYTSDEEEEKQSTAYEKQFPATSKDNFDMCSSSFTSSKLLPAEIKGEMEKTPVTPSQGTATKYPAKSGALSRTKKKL
As to the kind of experiment: CEREP protein kinase assay. In kind it is biochemical.

The mark [1] stands for this setting: male, CD-1, whole blood (dried blood spots), oral 10 mg/kg.

“Also recorded” adds a separate entry of the source.

As usually defined, the IC50 is the concentration that gives 50% inhibition. A higher IC50 goes with lower potency. Broadly, the AUC is the area under the concentration-time curve, a measure of exposure. What is called Cmax is the highest concentration seen after dosing. As a reminder, the bioavailability is the share of a dose that reaches the circulation, judged against a reference dose that is usually intravenous. By half-life is commonly meant the time in which the quantity being followed falls by half. A higher half-life goes with slow decline. In general, inhibition refers to the relative decrease from the control value, in per cent. `O=c1[nH]ccc2cc(F)c(NS(=O)(=O)c3ccc(N4CC[C@@H](O)C4)s3)cc12` [LSN3213128, N-(6-Fluoro-1-oxo-1,2-dihydroisoquinolin-7-yl)-5-[(3R)-3-hydroxypyrrolidin-1-yl]thiophene-2-sulfonamide] gave an IC50 with A9 murine cell line (Mus musculus, RPMI media) of 230 nM. Further, the “anti-proliferative effect on hypoxanthine supplementation” value in the data set with A9 murine cell line (hypoxanthine) is listed as “not reversed”. For the same molecule, the “dUMP levels in tissue culture” value in the data set on A9 cells (A9) is reported as “No changes; also recorded: does not alter”. Further, in the data set on A9 cells (A9 cells, calculated with 4 pL cell volume), the “peak intracellular ZMP levels” value was 6,500 μM. Also, in the data set “Pharmacokinetic studies” (male, CD-1, whole blood (dried blood spots), intravenous 1 mg/kg, read-out: volume of distribution), the Vd is 0.779 ± 0.17 L/kg. In the data set “Pharmacokinetic studies” (setting [1]), this molecule registered an AUC of 20.2 ± 4.52 µM·h. The molecule further gave a Cmax in “Pharmacokinetic studies” (setting [1]) of 4.57 ± 0.559 µM. Moreover, the bioavailability in “Pharmacokinetic studies” (male, CD-1, whole blood (dried blood spots), oral 10 mg/kg vs intravenous 1 mg/kg) came to 24.6 ± 4.6%. Moreover, the half-life in the data set “Pharmacokinetic studies” (oral 10 mg/kg) stood at 2.4 ± 0.3 h. Also, the “unbound Cmax” value in “Pharmacokinetic studies” (oral 10 mg/kg) came to 0.251 ± 0.031 µM. Further, the inhibition at 0.2 µM at KIT (@ 0.2 uM) was -6.65%; at SGK1 (@ 0.2 uM), -4.06%; against STK33 (@ 0.2 uM), -5.61%. Further, the inhibition at 2 µM was 6.65% at KIT (@ 2 uM), 7.54% against SGK1 (@ 2 uM) and 15.3% at STK33 (@ 2 uM). The inhibition at 20 µM at KIT (@ 20 uM) was 42%; on SGK1 (@ 20 uM) it was 17.3%; against STK33 (@ 20 uM) it was -1.42%.

Values taken from publication PMC6193938, “Characterization of a novel AICARFT inhibitor which potently elevates ZMP and has anti-tumor activity in murine models” (Scientific Reports, 2018).
